Data: ChEMBL document CHEMBL2034968, “Discovery of novel urea-based hepatitis C protease inhibitors with high potency against protease-inhibitor-resistant mutants” (J Med Chem, 2012)

Assays:
Hepatitis C virus [1] = test: Resistance index, ratio of EC50 for Hepatitis C virus subtype 1b harboring protease R155K mutant to EC50 for wild type Hepatitis C virus subtype 1b; format: functional, Hepacivirus hominis, genotype 1b
[2] = Inhibition of HCV 1a protease 1a domain; design: species or system Hepacivirus hominis
Hepatitis C virus [3] = test: Antiviral activity against Hepatitis C virus subtype 1b by stable replicon assay; format: functional, organism-based, Hepacivirus hominis; settings: genotype 1b
Hepatitis C virus [4] = test: Antiviral activity against Hepatitis C virus subtype 1a by stable replicon assay; format: functional, organism-based, Hepacivirus hominis
Hepatitis C virus [5] = test: Antiviral activity against Hepatitis C virus subtype 1b harboring protease D168V mutant by transient replicon assay; format: functional, organism-based, Hepacivirus hominis; settings: genotype 1b
Hepatitis C virus [6] = test: Antiviral activity against Hepatitis C virus subtype 1b harboring protease D168A mutant by transient replicon assay; format: functional, organism-based, Hepacivirus hominis; settings: genotype 1b
Hepatitis C virus [7] = test: Antiviral activity against Hepatitis C virus subtype 1b harboring protease A156V mutant by transient replicon assay; format: functional, organism-based, Hepacivirus hominis; settings: genotype 1b
Hepatitis C virus [8] = test: Antiviral activity against Hepatitis C virus subtype 1b harboring protease A156T mutant by transient replicon assay; format: functional, organism-based, Hepacivirus hominis; settings: genotype 1b
Hepatitis C virus [9] = test: Antiviral activity against Hepatitis C virus subtype 1b harboring protease A156S mutant by transient replicon assay; format: functional, organism-based, Hepacivirus hominis; settings: genotype 1b
Hepatitis C virus [10] = test: Antiviral activity against wild type Hepatitis C virus subtype 1b by transient replicon assay; format: functional, organism-based, Hepacivirus hominis; settings: genotype 1b
Hepatitis C virus [11] = test: Antiviral activity against Hepatitis C virus subtype 1b harboring protease R155K mutant by transient replicon assay; format: functional, organism-based, Hepacivirus hominis; settings: genotype 1b
Hepatitis C virus [12] = test: Resistance index, ratio of EC50 for Hepatitis C virus subtype 1b harboring protease D168A mutant to EC50 for wild type Hepatitis C virus subtype 1b; format: functional, Hepacivirus hominis, genotype 1b
Hepatitis C virus [13] = test: Resistance index, ratio of EC50 for Hepatitis C virus subtype 1b harboring protease D168V mutant to EC50 for wild type Hepatitis C virus subtype 1b; format: functional, Hepacivirus hominis, genotype 1b

| SMILES | Ratio EC50 (Hepatitis C virus [1]) | IC50 [2] | EC50 (Hepatitis C virus [3]) | EC50 (Hepatitis C virus [4]) | EC50 (Hepatitis C virus [5]) | EC50 (Hepatitis C virus [6]) | EC50 (Hepatitis C virus [7]) | EC50 (Hepatitis C virus [8]) | EC50 (Hepatitis C virus [9]) | EC50 (Hepatitis C virus [10]) | EC50 (Hepatitis C virus [11]) | Ratio EC50 (Hepatitis C virus [12]) | Ratio EC50 (Hepatitis C virus [13]) |
| --- | --- | --- | --- | --- | --- | --- | --- | --- | --- | --- | --- | --- | --- |
| CCN(C)C(=O)N[C@H]1CCCCC/C=C\[C@@H]2C[C@@]2(C(=O)NS(=O)(=O)C2CC2)NC(=O)[C@@H]2C[C@@H](Oc3cc(-c4nc(C(C)C)cs4)nc4c(C)c(OC)ccc34)CN2C1=O | <1000 | 6 nM | 0.4 nM | 0.7 nM | 147 nM | 60 nM | 11 nM | 3 nM | 0.5 nM | 0.2 nM | 25 nM | <1000 | <1000 |
| COc1ccc2c(O[C@@H]3C[C@H]4C(=O)N[C@]5(C(=O)NS(=O)(=O)C6CC6)C[C@H]5/C=C\CCCCC[C@H](NC(=O)N(C)C(C)C)C(=O)N4C3)cc(-c3nc(C4CC4)cs3)nc2c1C | <1000 | 0.8 nM | 0.4 nM | 0.3 nM | 37 nM | 17 nM | 5 nM | 2 nM | 0.05 nM | 0.04 nM | 5 nM | <1000 | <1000 |
| CCN(C(=O)N[C@H]1CCCCC/C=C\[C@@H]2C[C@@]2(C(=O)NS(=O)(=O)C2CC2)NC(=O)[C@@H]2C[C@@H](Oc3cc(-c4nc(C5CC5)cs4)nc4c(C)c(OC)ccc34)CN2C1=O)C(C)C | <1000 | 1 nM | 0.4 nM | 0.4 nM | 151 nM | 50 nM | 24 nM | 8 nM | 0.7 nM | 0.2 nM | 16 nM | <1000 | <1000 |
| COc1ccc2c(O[C@@H]3C[C@H]4C(=O)N[C@]5(C(=O)NS(=O)(=O)C6CC6)C[C@H]5/C=C\CCCCC[C@H](NC(=O)N(C(C)C)C(C)C)C(=O)N4C3)cc(-c3nc(C4CC4)cs3)nc2c1C | <1000 | 2 nM | 0.9 nM | 0.7 nM | 105 nM | 64 nM | 43 nM | 11 nM | 0.6 nM | 0.2 nM | 46 nM | <1000 | <1000 |
| COc1ccc2c(O[C@@H]3C[C@H]4C(=O)N[C@@]5(C(=O)NS(=O)(=O)C6CC6)C[C@@H]5/C=C/CCCCN(C)C(=O)[C@@H]4C3)cc(-c3nc(C(C)C)cs3)nc2c1C | 0.3 | 10 nM | 1 nM | 2 nM | 140 nM | 149 nM | 344 nM | 86 nM | 0.3 nM | 1 nM | 56 nM | 0.3 | 0.3 |
| CC(C)(C)OC(=O)N[C@H]1CCCCC/C=C\[C@@H]2C[C@@]2(C(=O)NS(=O)(=O)C2CC2)NC(=O)[C@@H]2C[C@@H](OC(=O)N3Cc4cccc(F)c4C3)CN2C1=O [DANOPREVIR] | 10 | 0.7 nM | 1.5 nM | 2 nM | 26 nM | 39 nM | 8 nM | 10 nM | 2 nM | 0.2 nM | 82 nM | 10 | 10 |
| CCC[C@H](NC(=O)[C@@H]1[C@H]2CCC[C@H]2CN1C(=O)[C@@H](NC(=O)[C@@H](NC(=O)c1cnccn1)C1CCCCC1)C(C)(C)C)C(=O)C(=O)NC1CC1 [TELAPREVIR] | 6 | 500 nM | 372 nM | 540 nM | 207 nM | 638 nM | 1960 nM | 1140 nM | 883 nM | 34 nM | 1780 nM | 6 | 6 |
